Assay results published in patent publication US20240091209A1, “COMPOSITIONS AND METHODS FOR TREATMENT OF HIDRADENITIS SUPPURATIVA” (SUZHOU KINTOR PHARMACEUTICALS, INC., priority 2021, published 2024).
Entries after “also recorded” stand apart in the source; their conditions may differ.

Assays:
[1] = system: hidradenitis suppurativa (HS); assay: Study of Proxalutamide for the treatment of HS (Hurley Stage after 7 days); type: in vivo, human
Protocol: (§1) Overview: Four subjects, 2 males and 2 females, were recruited to the Proxalutamide HS study. At baseline (day 0) all subjects were diagnosed by a dermatologist with HS Hurley Stage 3. All subjects presented HS in the axilla region. Two subjects (1 male and 1 female) were treated for 7 days with Proxalutamide monotherapy 200 mg daily and two subjects were treated for 7 days with Proxalutamide placebo monotherapy 200 mg daily
Efficacy Endpoint: Hurley Stage following 7 days of treatment.
Formula: Proxalutamie 200 mg q.d.
(§2) Results: Following 7 days of treatment with Proxalutamide 200 mg q.d., all four subjects returned to the clinic to be assessed by a dermatologist. On day 7 both subjects treated with Proxalutamie were diagnosed by a dermatologist with HS Hurley Stage 1. […] On day 7 both subjects treated with Proxalutamie placebo were diagnosed by a dermatologist with HS Hurley Stage 3.

[2] = Adverse events in the Proxalutamide HS study; type: in vivo, human; details: 200 mg q.d. for 7 days; 2 subjects
Protocol: as §1, §2

[3] = men and women; cited from earlier work
[4] = target: T1, androgen receptor (AR) (Homo sapiens, UniProt P10275); details: clinical evidence, no details given; cited from earlier work
T1 sequence (P10275 1-920): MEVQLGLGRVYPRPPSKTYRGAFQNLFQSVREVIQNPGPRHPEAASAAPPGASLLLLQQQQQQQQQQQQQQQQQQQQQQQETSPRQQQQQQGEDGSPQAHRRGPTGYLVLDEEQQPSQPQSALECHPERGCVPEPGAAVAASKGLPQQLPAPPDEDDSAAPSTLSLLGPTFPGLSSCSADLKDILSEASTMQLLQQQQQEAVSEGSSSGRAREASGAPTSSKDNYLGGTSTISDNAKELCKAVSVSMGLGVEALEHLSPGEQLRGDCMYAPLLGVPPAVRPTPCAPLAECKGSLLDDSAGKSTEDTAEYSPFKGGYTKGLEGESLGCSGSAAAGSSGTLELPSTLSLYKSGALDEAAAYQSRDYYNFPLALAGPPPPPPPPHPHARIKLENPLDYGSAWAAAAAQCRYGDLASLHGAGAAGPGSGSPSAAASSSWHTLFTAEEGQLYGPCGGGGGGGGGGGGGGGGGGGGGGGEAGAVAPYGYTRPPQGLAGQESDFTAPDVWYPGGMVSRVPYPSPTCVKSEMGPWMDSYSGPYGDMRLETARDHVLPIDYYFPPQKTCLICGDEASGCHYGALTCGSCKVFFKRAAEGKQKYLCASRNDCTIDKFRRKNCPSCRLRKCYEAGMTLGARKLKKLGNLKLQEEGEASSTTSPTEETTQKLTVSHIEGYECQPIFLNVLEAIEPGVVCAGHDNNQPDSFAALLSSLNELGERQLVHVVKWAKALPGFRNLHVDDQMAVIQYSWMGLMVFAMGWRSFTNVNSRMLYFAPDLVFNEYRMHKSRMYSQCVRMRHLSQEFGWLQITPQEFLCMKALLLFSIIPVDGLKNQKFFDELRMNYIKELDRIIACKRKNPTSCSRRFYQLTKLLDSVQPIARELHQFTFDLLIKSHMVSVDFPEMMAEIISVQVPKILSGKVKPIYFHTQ

[5] = system: hidradenitis suppurativa (HS); details: 24 female patients; ethinyloestradiol 50 μg + cyproterone acetate 50 mg vs ethinyloestradiol 50 μg + norgestrel 500 μg; positive benefits in both groups; cited from earlier work

SMILES | HS Hurley Stage diagnosed by a dermatologist on day 7 ([1]; 200 mg q.d. monotherapy for 7 days, 2 subjects (1 male, 1 female), axilla, baseline Hurley Stage 3, placebo subjects stayed at Stage 3) | Severity of HS compared to the placebo ([1]; within 7 days, 200 mg q.d.) | Adverse events reported by the subjects [2] | Safety in Phase II studies [3] | Effect on AR expression and activity [4] | Benefit in HS versus ethinyloestradiol plus norgestrel [5]
CC1(C)C(=O)N(c2ccc(C#N)c(C(F)(F)F)c2F)C(=S)N1c1ccc(CCCc2ncco2)nc1 [Proxalutamide, proxalutamide] | 1 | reduced the severity of HS | No adverse events; also recorded: without any adverse events | safe in both men and women | lowers AR expression and activity | 
CC(=O)O[C@]1(C(C)=O)CC[C@H]2[C@@H]3C=C(Cl)C4=CC(=O)[C@@H]5C[C@@H]5[C@]4(C)[C@H]3CC[C@@]21C [cyproterone acetate] |  |  |  |  |  | no statistically significant advantage
